Read-outs that look alike come from different tables or passages of the source.
Columns and labels:
[1] = target: T1, human GSR enzyme (recombinant GSR) (Homo sapiens, UniProt P00390); assay: Glutathione reductase (GSR) activity assay; assay type: biochemical; conditions: for remaining activity at 30 µM: 2 h at 25°C, read-out: GSR, enzyme residual activity as compared to DMSO-treated sample; for inhibition at 30 µM: read-out: GSR-inhibiting activity
T1 construct: made in house; host or cells: E. coli BL21(DE3)
T1 sequence (P00390 44-522): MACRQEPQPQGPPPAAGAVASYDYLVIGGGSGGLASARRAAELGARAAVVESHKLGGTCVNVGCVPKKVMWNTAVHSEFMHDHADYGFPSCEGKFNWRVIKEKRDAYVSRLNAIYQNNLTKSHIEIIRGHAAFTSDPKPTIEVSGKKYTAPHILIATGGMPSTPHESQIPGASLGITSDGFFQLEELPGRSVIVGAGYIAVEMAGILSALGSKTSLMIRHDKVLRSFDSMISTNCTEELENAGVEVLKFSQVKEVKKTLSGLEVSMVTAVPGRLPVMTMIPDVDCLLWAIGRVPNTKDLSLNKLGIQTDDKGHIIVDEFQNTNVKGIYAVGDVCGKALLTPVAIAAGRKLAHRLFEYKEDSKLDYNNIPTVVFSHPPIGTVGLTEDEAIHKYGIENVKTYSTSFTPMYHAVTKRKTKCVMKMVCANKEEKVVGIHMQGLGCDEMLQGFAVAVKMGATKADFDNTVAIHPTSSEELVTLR
Experimental: Recombinant GSR (0.5 u/well) in a 96-well plate was incubated in the GSR assay buffer (50 mM potassium phosphate buffer, pH 7.5 supplemented with 1 mM EDTA), 100 μl with and without compound (30 μM) for 2 h at 25°C. At the end of incubation, 100 μl of solution containing NADPH (0.087 mM), oxidized glutathione (GSSG) (0.95 mM) and 1 μl of the reagent that detects ratio of GSSG to reduced glutathione (GSH) (Abcam) were added and the mixture was incubated for an additional 1 h at 25°C. GSR activity was measured by using 490-nm excitation and monitoring fluorescence at 520 nm with a fluorescence plate reader. One unit of GSR activity was defined as the amount of enzyme required to produce 1 μM of GSH in a total reaction volume of 200 μl in 1 minute in the GSR assay buffer containing NADPH (0.087 mM), GSSG (0.95 mM) and 1 μl of GSH/GSSG ratio detection reagent (Abcam).
Next, we evaluated the inhibitory activity of the selected compounds against human GSR enzyme using recombinant GSR and Abcam GSH/GSSG ratio detection reagent (Table 1). Briefly, GSR activity was measured by following oxidized glutathione (GSSG) reduction in the presence of NADPH and expressed as percentage of residual activity with respect to DMSO-treated enzyme. The residual activity of GSR for both the non-toxic and toxic compounds was quite heterogeneous, ranging from 100% (compounds 38) to 3% (compound 32). […] We thus conclude that GSR inhibitory activity alone cannot be used to predict the selective cytotoxicity index.

in vitro = conditions: human
Description: (§3) We selected hepatocytes as normal cells because hepatocytes are mediate toxicity to multiple drugs and are used as a standard to assess toxicity of drugs in vitro [28]. […] For comparison with the standard of care, doxorubicin was also included in this analysis.

[2] = test system: human primary hepatocytes; assay: cells; conditions: Hepatocyte, read-out: EC50, μM Hepatocytes
Description: as §3

[3] = test system: breast carcinoma HCC1187 cells; assay: cells; assay type: cell-based; conditions: for CC50: Homo sapiens; for Selective cytotoxicity index HCC 1187 ATO: human
Description: For further analyses, we used compounds that have the selective cytotoxicity index either above 20 (non-toxic compounds) or below 1 (toxic compounds) with the aim to identify targets that are responsible for the selective activity of the identified compounds toward cancer cells. To confirm that the effects of the selected compounds are not only specific to MIA PaCa-2 cells, we evaluated their cytotoxic activities on breast carcinoma HCC1187 cells (Table 1). […] For easy comparison, the data with MIA PaCa-2 cells were also included in Table 1. […] We also noticed that, again with a few exceptions, HCC1187 cells are more resistant to the non-toxic compounds in the presence of ATO as compared to MIA PaCa-2 cells. In contrast, HCC1187 cells are more sensitive to all toxic compounds in the presence of ATO as compared to MIA PaCa-2 cells. The high sensitivity of HCC1187 cells to toxic compounds contributed to the increased selective cytotoxicity index.

hepatocytes = assay: Hydrogen peroxide cell-based assay (ROS induction), hepatocytes; set-up: species or system Human; conditions: 30 μM; hydrogen peroxide level relative to DMSO-treated cells (100%)
Experimental: (§1) Cells were incubated for 2 h with either compounds (30 μM) or DMSO in a 96-well plate. After the treatment, 80 μl of cell culture medium was collected and the level of hydrogen peroxide was determined using a Hydrogen Peroxide Cell-Based Assay kit (Cayman).
(§2) Cells were incubated with the compounds for 4 h and the level of ROS induction was measured by a hydrogen peroxide cell-based assay kit. Compounds were assayed at a fixed concentration of 30 μM and the measured level of hydrogen peroxide was expressed as percentage in relation to DMSO-treated cells (100%). […] This distinction was more evident for compounds with the highest selective cytotoxicity index. […] We conclude that the selective induction of ROS in cancer cells is required but not sufficient factor for the selective anti-tumor activity.

MIA PaCa-2 cells = assay: Hydrogen peroxide cell-based assay (ROS induction), MIA PaCa-2 cells; conditions: Homo sapiens, hydrogen peroxide level relative to DMSO-treated cells (100%), read-out: ROS increase, % MIA PaCa-2
Experimental: as §1, §2

[4] = test system: pancreatic cancer MIA PaCa-2 cells; assay: cells; conditions: for EC50 / CC50: Homo sapiens; for EC50: MIA PaCa-2, read-out: EC50, μM MIA PaCa-2; for CC50: MIA PaCa-2, read-out: LC50 MIA PaCa-2
Experimental: Fig 1 A, Structure of NSC130362. B, Dose response curve of NSC130362 in MIA PaCa-2 cells. Cells were pre-incubated with NSC130362 for 2 h followed by addition of ATO (5 μM) and incubation for an additional 24 h. At the end of the treatment, the ratio of dead cells was determined by a CellTiterGlo reagent.

[5] = test system: Complex I (bovine heart mitochondria); assay: MitoCheck Complex I activity assay; conditions: 30 μM; for Mito Check I, enzyme residual activity as compared to DMSO-treated sample: bovine heart mitochondria, NADH oxidation
Experimental: MitoCheck Complex I activity was determined as described in the manual of the manufacturer’s manual (Cayman). Briefly, compounds (30 μM) or DMSO were mixed with the Complex I activity assay buffer that contained bovine heart mitochondria reagent, NADH, and ubiquinone in the presence of KCN to inhibit complex IV activity. The level of Complex I activity was monitored in a kinetic assay of NADH oxidation by measuring a decrease in absorbance at 340 nm. The residual Complex I activity was calculated by dividing the rate of compound wells by the rate of DMSO wells for the linear portion of the curve.
To test possible effects of compounds on ETC, we analyzed the Complex I-mediated NADH oxidation using a MitoCheck Complex I Activity Assay Kit. The level of NADH oxidation was measured by a decrease in absorbance at 340 nm and expressed as percentage of residual activity in relation to DMSO-treated mitochondria (Table 1). […] Complex I activity was estimated by the rate of NADH oxidation which was also affected by NADH/NADPH-dehydrogenase-mediated redox cycling.

[6] = HCC1187, compound alone, unit not given in Table 1, read-out: LC50 HCC1187
[7] = HCC1187, read-out: LC50 HCC1187

NC1=C(Cl)C(=O)c2ccccc2C1=O [compound 1, 2-chloro-3-amino-1,4-NQ]
remaining activity at 30 µM [1]: 33% | inhibition at 30 µM [1]: 67% | CC50 (in vitro; primary hepatocytes): 17 µM | EC50 [2]: 17 µM | CC50 [3, 6]: 10.8 µM | ROS increase, % Hepatocytes (hepatocytes): 156% | activity at 30 µM (MIA PaCa-2 cells): 331% | EC50 [4]: 8.4 µM | CC50 [4]: 8.4 µM | stimulation of Complex I activity [5]: more than 30% | Mito Check I, enzyme residual activity as compared to DMSO-treated sample [5]: 145%

CCNC1=C(Cl)C(=O)c2ccccc2C1=O [compound 3]
remaining activity at 30 µM [1]: 59% | CC50 (in vitro; primary hepatocytes): 81.9 µM | EC50 [2]: 81.9 µM | CC50 [3, 6]: 23.6 µM | ROS increase, % Hepatocytes (hepatocytes): 115% | activity at 30 µM (MIA PaCa-2 cells): 182% | EC50 [4]: 59 µM | CC50 [4]: 59 µM | Mito Check I, enzyme residual activity as compared to DMSO-treated sample [5]: 93%

CCCCCCCNC1=C(Cl)C(=O)c2ccccc2C1=O [compound 8]
remaining activity at 30 µM [1]: 93% | inhibition at 30 µM [1]: 7% | CC50 (in vitro; primary hepatocytes): 78.6 µM | EC50 [2]: 78.6 µM | CC50 [3, 6]: 56.1 µM | ROS increase, % Hepatocytes (hepatocytes): 115% | activity at 30 µM (MIA PaCa-2 cells): 110% | EC50 [4]: > 90 µM | CC50 [4]: > 90 µM | Mito Check I, enzyme residual activity as compared to DMSO-treated sample [5]: 116%

CC(C)(C)NC1=C(Cl)C(=O)c2ccccc2C1=O [compound 13]
remaining activity at 30 µM [1]: 45% | CC50 (in vitro; primary hepatocytes): 29.9 µM | EC50 [2]: 29.9 µM | CC50 [3, 6]: 28.7 µM | ROS increase, % Hepatocytes (hepatocytes): 123% | activity at 30 µM (MIA PaCa-2 cells): 248% | EC50 [4]: 7.2 µM | CC50 [4]: 7.2 µM | Mito Check I, enzyme residual activity as compared to DMSO-treated sample [5]: 84%

CC1CN1C1=C(Cl)C(=O)c2ccccc2C1=O (stereo not drawn) [compound 16]
remaining activity at 30 µM [1]: 75% | CC50 (in vitro): 78 µM | EC50 [2]: 78 µM | CC50 [3, 7]: 3.6 µM | Selective cytotoxicity index HCC 1187 ATO [3]: 128.6 | activity at 30 µM (MIA PaCa-2 cells): 637% | EC50 [4]: 6.9 µM | CC50 [4]: 6.9 µM | Mito Check I, enzyme residual activity as compared to DMSO-treated sample [5]: 58%

O=C1C(Cl)=C(NCCc2ccccc2)C(=O)c2ccccc21 [compound 36]
remaining activity at 30 µM [1]: 42% | CC50 (in vitro; primary hepatocytes): 8.8 µM | EC50 [2]: 8.8 µM | ROS increase, % Hepatocytes (hepatocytes): 178% | activity at 30 µM (MIA PaCa-2 cells): 721% | EC50 [4]: 16.2 µM | CC50 [4]: 16.2 µM | stimulation of Complex I activity [5]: more than 30% | Mito Check I, enzyme residual activity as compared to DMSO-treated sample [5]: 135%

O=C1C(Cl)=C(Nc2ccccc2)C(=O)c2ccccc21 [compound 39]
remaining activity at 30 µM [1]: 92% | CC50 (in vitro; primary hepatocytes): 2.3 µM | EC50 [2]: 2.3 µM | CC50 [3, 6]: 1.7 µM | ROS increase, % Hepatocytes (hepatocytes): 174% | EC50 [4]: 3.9 µM | CC50 [4]: 3.9 µM | reduced anti-cancer activity ([4]; versus compound 1): 8 fold | inhibition of mitochondrial function (Complex I) [5]: 9% | Mito Check I, enzyme residual activity as compared to DMSO-treated sample [5]: 91%

COC1=C(N(C)C)C(=O)c2ccccc2C1=O [compound 53]
remaining activity at 30 µM [1]: 61% | EC50 [2]: > 90 µM | CC50 [3, 6]: > 90 µM | Selective cytotoxicity index HCC 1187 ATO [3]: 9.5 | ROS increase, % Hepatocytes (hepatocytes): 117% | activity at 30 µM (MIA PaCa-2 cells): 446% | EC50 [4]: 23.4 µM | CC50 [4]: 23.4 µM | Mito Check I, enzyme residual activity as compared to DMSO-treated sample [5]: 51%

COC1=C(N2CC2)C(=O)c2ccccc2C1=O [compound 54]
remaining activity at 30 µM [1]: 54% | EC50 [2]: > 90 µM | CC50 [3, 7]: 18.2 µM | Selective cytotoxicity index HCC 1187 ATO [3]: 40.9 | activity at 30 µM (MIA PaCa-2 cells): 675% | EC50 [4]: 7.5 µM | CC50 [4]: 7.5 µM | Mito Check I, enzyme residual activity as compared to DMSO-treated sample [5]: 84%

CC1=C(N2CC2)C(=O)c2ccccc2C1=O [compound 55]
remaining activity at 30 µM [1]: 83% | inhibition at 30 µM [1]: 17% | CC50 (in vitro): > 90 µM | EC50 [2]: > 90 µM | CC50 [3, 7]: 51.8 µM | Selective cytotoxicity index HCC 1187 ATO [3]: 15.8 | activity at 30 µM (MIA PaCa-2 cells): 416% | EC50 [4]: 3.1 µM | CC50 [4]: 3.1 µM | increase in anti-cancer activity ([4]; versus compound 15): 2 fold | Mito Check I, enzyme residual activity as compared to DMSO-treated sample [5]: 72%

O=C1C=C(SCCO)C(=O)c2ccccc21 [compound 60]
remaining activity at 30 µM [1]: 38% | CC50 (in vitro; primary hepatocytes): 3.3 µM | EC50 [2]: 3.3 µM | CC50 [3, 6]: 0.6 µM | ROS increase, % Hepatocytes (hepatocytes): 386% | EC50 [4]: 6.2 µM | CC50 [4]: 6.2 µM | stimulation of Complex I activity [5]: more than 30% | Mito Check I, enzyme residual activity as compared to DMSO-treated sample [5]: 212%

CCNC1=CC(=O)c2ncccc2C1=O [compound 66]
remaining activity at 30 µM [1]: 59% | EC50 [2]: > 90 µM | CC50 [3, 6]: 13.2 µM | ROS increase, % Hepatocytes (hepatocytes): 173% | activity at 30 µM (MIA PaCa-2 cells): 626% | EC50 [4]: 4.5 µM | CC50 [4]: 4.5 µM | improved anti-cancer activity ([4]; versus compound 49): more than 30 fold | stimulation of Complex I activity [5]: more than 30% | Mito Check I, enzyme residual activity as compared to DMSO-treated sample [5]: 158%

— publication PMC6433232, “Targeting mitochondria in cancer therapy could provide a basis for the selective anti-cancer activity” (PLoS ONE, 2019)
